Assay [1] concerns the target T1, Mannose-6-phosphate isomerase (Escherichia coli (strain K12)) (UniProt P00946).
T1 sequence (whole entry): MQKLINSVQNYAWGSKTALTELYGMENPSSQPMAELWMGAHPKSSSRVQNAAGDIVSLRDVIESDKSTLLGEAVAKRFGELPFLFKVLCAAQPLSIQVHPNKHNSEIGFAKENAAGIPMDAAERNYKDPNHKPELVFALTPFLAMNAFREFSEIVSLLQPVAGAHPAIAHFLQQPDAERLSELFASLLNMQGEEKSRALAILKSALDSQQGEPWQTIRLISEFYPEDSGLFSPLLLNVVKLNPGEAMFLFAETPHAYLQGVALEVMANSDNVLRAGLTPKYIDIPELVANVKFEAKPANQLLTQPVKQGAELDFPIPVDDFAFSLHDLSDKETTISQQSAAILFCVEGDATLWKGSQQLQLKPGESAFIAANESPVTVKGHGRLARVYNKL
Description: Competitive inhibition of Escherichia coli type I phosphomannose isomerase assessed as D-mannose 6-phosphate to D-fructose 6-phosphate isomerization at pH 7.1 by PGI/G6PDH coupled enzyme spectrophotometric assay.

Assay [2] deals with T2, Mannose-6-phosphate isomerase (Saccharomyces cerevisiae, UniProt P29952).
T2 sequence (P29952 whole entry): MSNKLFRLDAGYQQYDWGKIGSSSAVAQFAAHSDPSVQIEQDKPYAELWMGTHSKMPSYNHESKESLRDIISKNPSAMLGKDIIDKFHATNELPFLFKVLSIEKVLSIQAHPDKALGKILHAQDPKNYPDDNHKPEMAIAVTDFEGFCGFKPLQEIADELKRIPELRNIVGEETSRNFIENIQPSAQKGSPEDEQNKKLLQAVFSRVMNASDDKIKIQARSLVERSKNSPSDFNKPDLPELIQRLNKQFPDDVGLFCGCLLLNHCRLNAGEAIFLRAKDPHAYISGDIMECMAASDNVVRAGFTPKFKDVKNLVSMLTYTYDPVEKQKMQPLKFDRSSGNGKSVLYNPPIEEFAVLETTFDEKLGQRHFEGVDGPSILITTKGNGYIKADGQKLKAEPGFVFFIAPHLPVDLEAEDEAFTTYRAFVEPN
Kind of assay: Inhibition of Saccharomyces cerevisiae type I phosphomannose isomerase assessed as D-mannose 6-phosphate to D-fructose 6-phosphate isomerization at pH 7.1 by PGI/G6PDH coupled enzyme spectrophotometric assay.

Assay [3] concerns the target T3, Mannose-6-phosphate isomerase (Escherichia coli (strain K12), UniProt P00946).
T3 sequence (P00946 whole entry): T1 sequence (whole entry)
Description: Inhibition of Escherichia coli type I phosphomannose isomerase assessed as D-mannose 6-phosphate to D-fructose 6-phosphate isomerization at pH 7.1 by PGI/G6PDH coupled enzyme spectrophotometric assay.

The target in assay [4] is T4, Mannose-6-phosphate isomerase (Saccharomyces cerevisiae) (UniProt P29952).
T4 sequence (whole entry): T2 sequence (P29952 whole entry)
Description: Competitive inhibition of Saccharomyces cerevisiae type I phosphomannose isomerase assessed as D-mannose 6-phosphate to D-fructose 6-phosphate isomerization at pH 7.1 by PGI/G6PDH coupled enzyme spectrophotometric assay.

As usually defined, the IC50 is the midpoint of a concentration-inhibition curve. In general, Ki refers to a dissociation constant, usually derived from enzyme kinetics or from competition with a known ligand.

Each structure is given as a SMILES string. Calls of active or inactive are those of the source. The rule behind the calls is not given here.

Take `O=C(O)C(C[C@H]1OC(O)[C@@H](O)[C@@H](O)[C@@H]1O)C(=O)O` (some centres not stated): the inhibition result in assay [1] and in assay [4] was “Active” throughout. Also, the IC50 in assay [2] stood at 18.1 µM; in assay [3] it was 199 µM. Further, the values for the Ki in assay [2] and in assay [3] were 10.5 µM and 115 µM, respectively.

On to `O=C(O)[C@@H](O)[C@H](O)[C@H](O)CP(=O)(O)O`, for which the IC50 in assay [3] was above 3000 µM.

Regarding `O=C(O)CC[C@H]1OC(O)[C@@H](O)[C@@H](O)[C@@H]1O` (some centres not stated), the IC50 in assay [2] came to 900 µM; in assay [3] it was 4600 µM.

In the case of `NNC(=O)[C@@H](O)[C@H](O)[C@H](O)CCP(=O)(O)O`, the IC50 in assay [3] was above 3000 µM.

`O=C(NO)[C@@H](O)[C@H](O)[C@H](O)CCP(=O)(O)O.ONO.ONO.ONO`: the IC50 came out at 2200 µM in assay [2] and 370 µM in assay [3].

The values are drawn from ChEMBL document CHEMBL1152637, “Synthesis and evaluation of non-hydrolyzable D-mannose 6-phosphate surrogates reveal 6-deoxy-6-dicarboxymethyl-D-mannose as a new strong inhibitor of phosphomannose isomerases” (Bioorg Med Chem, 2009).
